According to patent US3966718A, “7-β-Acylamino-ceph-3-ems and salts and esters therefor” (Beecham Group Limited, priority 1973, dated 1976):
Values after ≈ are worked out from the molar mass of the structure shown. Structures can show the parent of a compound that is named as a salt. Where two headings read alike, the source gives them in different places.

Assays:
Format in all cases: cell-based
[1] = tested on: Gram-positive and Gram-negative organisms; experiment: antibacterial activity (general statement); conditions: in words
B. subtilis = experiment: MIC on (nutrient) agar; conditions: Bacillus subtilis; B. subtilis, agar; read-out: minimum inhibitory concentration (MIC)
Salmonella typhi = experiment: MIC on nutrient agar; conditions: Salmonella enterica, read-out: minimum inhibitory concentration (MIC)
Staph. aureus Russell = experiment: MIC on (nutrient) agar; conditions: Staphylococcus aureus; Staph. aureus Russell, agar; read-out: minimum inhibitory concentration (MIC)
β-Haemolytic Strep. CN10 = experiment: MIC on (nutrient) agar; conditions: β-Haemolytic Strep. CN10, agar; read-out: minimum inhibitory concentration (MIC)
Staph. aureus Oxford = experiment: MIC on (nutrient) agar; conditions: Staphylococcus aureus, read-out: minimum inhibitory concentration (MIC)
Shigella sonnei = experiment: MIC on nutrient agar; conditions: read-out: minimum inhibitory concentration (MIC)
Klebsiella aerogenes A = experiment: MIC on nutrient agar; conditions: Klebsiella aerogenes A, nutrient agar; read-out: minimum inhibitory concentration (MIC)
E. coli JT 1 = experiment: MIC on nutrient agar; conditions: Escherichia coli
Proteus mirabilis C977 = experiment: MIC on nutrient agar

O=C(Cc1cccs1)N[C@@H]1C(=O)N2C(C(=O)O)=C(Cc3cccnc3)CS[C@H]12 [Example 2, 3(3-pyridylmethyl)-7β-(2-thienylacetamido)-3-cephem-4-carboxylic acid]
antibacterial activity [1]: essentially similar to the trifluoroacetate salt described in Example 1

O=C(Cc1ccncc1)N[C@@H]1C(=O)N2C(C(=O)O)=C(Cc3cccnc3)CS[C@H]12 [Example 17, 7β(4-pyridylacetamido)-3(3-pyridylmethyl)-3-cephem-4-carboxylic acid di-trifluoroacetic acid salt]
MIC (B. subtilis): 0.25 µg/mL | MIC (Salmonella typhi): 10 µg/mL | MIC (Staph. aureus Russell): 25 µg/mL | MIC (β-Haemolytic Strep. CN10): 0.12 µg/mL | MIC (Staph. aureus Oxford): 0.12 µg/mL | MIC (Shigella sonnei): 25 µg/mL | MIC (Klebsiella aerogenes A): 10 µg/mL | MIC (E. coli JT 1; JT1, E. coli JT 1, nutrient agar, read-out: minimum inhibitory concentration (MIC)): 25 µg/mL | MIC (Proteus mirabilis C977; Proteus mirabilis C977, nutrient agar, read-out: minimum inhibitory concentration (MIC)): 10 µg/mL

CN(C(=O)C=Cc1ccccc1)C(=O)N[C@@H](C(=O)N[C@@H]1C(=O)N2C(C(=O)O)=C(Cc3cccnc3)CS[C@H]12)c1ccccc1 [Example 20]
MIC (B. subtilis): 32 µg/mL (≈ 52.3 µM) | MIC (Salmonella typhi): > 125 µg/mL | MIC (Staph. aureus Russell): 63 µg/mL (≈ 103 µM) | MIC (β-Haemolytic Strep. CN10): 0.25 µg/mL (≈ 0.409 µM) | MIC (Staph. aureus Oxford): 4 µg/mL (≈ 6.54 µM) | MIC (Shigella sonnei): 63 µg/mL (≈ 103 µM) | MIC (Klebsiella aerogenes A): 63 µg/mL (≈ 103 µM) | MIC (E. coli JT 1; JT1, read-out: minimum inhibitory concentration (MIC)): 125 µg/mL (≈ 204 µM) | MIC (Proteus mirabilis C977; Proteus mirabilis, C977, read-out: minimum inhibitory concentration (MIC)): > 125 µg/mL
